Test results taken from patent publication US4072668A, “LH-RH Analogs” (The Salk Institute for Biological Studies, priority 1974, dated 1978).
Non-standard residues stand in square brackets, D forms with d. Residues, ends and D or L forms follow the SMILES beside them. pGlu = O=C1CC[C@@H](C(=O)O)N1

What was measured:
pituitary gland [1] = assay: Release of gonadotropins after administration to a mammal; type: in vivo; conditions: 500 nanograms per kilogram of body weight
pituitary gland [2] = tested on: pituitary gland
[3] = tested on: dispersed rat pituitary cells; assay: In vitro suppression of LRF-generated LH secretion in dispersed rat pituitary cell culture; type: cell-based; conditions: molar ratio of peptide to LRF; culture inoculated with 3×10^-5 M of LRF
Procedure: (§1) Using the above method, the peptide compositions set forth below in Tables I and II were prepared. The peptide compositions were assayed in vitro and in vivo. The in vitro assay was made using a 5 day old primary culture of dispersed rat pituitary cells. The LH secreted in response to the peptide compositions was assayed by specific radioimmunoassay for rat LH. The peptide compositions were applied to the culture at a level of 3×10^-5 M. The potency of these peptide compositions which stimulate secretion of gonadotropins is expressed in terms of percent LRF potency wherein LRF has a potency of 100. For those peptide compositions which are antagonistic to secretion of gonadotropins, the culture was inoculated with 3×10^-5 M of LRF and the molar ratio of the peptide required to suppress secretion of LH generated by the LRF was determined.

rats [4] = assay: In vivo suppression of LH secretion generated by injected LRF in rats; design: species or system rat; conditions: molar ratio of peptide to LRF; rats injected with 100 nanograms of LRF
Procedure: (§2) The effectiveness of the peptide compositions which stimulate secretion of gonadotropins was determined in vivo by intravenous injection of 100 nanograms of the peptide into rats. The rats were chronically ovariectomized and were treated with estrogen and progesterone prior to assay. The LH level was determined in plasma by solid phase radioimmunoassay for rat LH. For those peptide compositions which are antagonistic to secretion of gonadotropins, the rats were injected with 100 nanograms of LRF and the molar ratio of the peptide required to suppress section of LH generated by the LRF was determined.

[5] = tested on: dispersed rat pituitary cells; assay: In vitro LH secretion by primary culture of dispersed rat pituitary cells (stimulation), rat LH radioimmunoassay; type: cell-based; conditions: peptide applied to culture at 3×10^-5 M; LRF has a potency of 100
Procedure: as §1

rats [6] = assay: In vivo plasma LH after intravenous injection into ovariectomized, estrogen/progesterone-treated rats; design: species or system rat; conditions: intravenous injection of 100 nanograms of peptide, LRF = 100
Procedure: as §2

pituitary gland [7] = assay: Inhibition of release of gonadotropins by the pituitary gland (test not given); design: species or system mammalians; conditions: relative to Gly6 peptide

Compound	percent potency for effecting release of luteinizing hormone (compared to the LRF decapeptide) (pituitary gland [2])	Molar ratio necessary to produce inhibition In Vitro [3]	Molar ratio necessary to produce inhibition In Vivo (rats [4])	also measured
CC(C)C[C@H](NC(=O)CNC(=O)[C@H](Cc1ccc(O)cc1)NC(=O)[C@H](CO)NC(=O)[C@H](Cc1c[nH]c2ccccc12)NC(=O)[C@H](Cc1c[nH]cn1)NC(=O)[C@@H]1CCC(=O)N1)C(=O)N[C@@H](CCCNC(=N)N)C(=O)N1CCC[C@H]1C(=O)NCC(N)=O [pGlu-His-Trp-Ser-Tyr-Gly-Leu-Arg-Pro-Gly-NH2]				release of gonadotropins by the pituitary gland (in words) (pituitary gland [1]): significant release of gonadotropins
CC(C)C[C@H](NC(=O)[C@H](C)NC(=O)[C@H](Cc1ccc(O)cc1)NC(=O)[C@H](CO)NC(=O)[C@H](Cc1c[nH]c2ccccc12)NC(=O)[C@H](Cc1c[nH]cn1)NC(=O)[C@@H]1CCC(=O)N1)C(=O)N[C@@H](CCCNC(=N)N)C(=O)N1CCC[C@H]1C(=O)NCC(N)=O [L-Ala for Gly in the 6-position of LRF]	3%			
CC(C)C[C@H](NC(=O)[C@H]1CCCN1C(=O)[C@H](Cc1ccc(O)cc1)NC(=O)[C@H](CO)NC(=O)[C@H](Cc1c[nH]c2ccccc12)NC(=O)[C@H](Cc1c[nH]cn1)NC(=O)[C@@H]1CCC(=O)N1)C(=O)N[C@@H](CCCNC(=N)N)C(=O)N1CCC[C@H]1C(=O)NCC(N)=O [D-Pro]	10%			
CC(C)C[C@H](NC(=O)[C@H](NC(=O)[C@H](Cc1ccc(O)cc1)NC(=O)[C@H](CO)NC(=O)[C@H](Cc1c[nH]c2ccccc12)NC(=O)[C@H](Cc1c[nH]cn1)NC(=O)[C@@H]1CCC(=O)N1)C(C)C)C(=O)N[C@@H](CCCNC(=N)N)C(=O)N1CCC[C@H]1C(=O)NCC(N)=O [D-Val for Gly]	30%			
CC(C)C[C@H](NC(=O)CNC(=O)[C@H](Cc1ccc(O)cc1)NC(=O)[C@H](CO)NC(=O)[C@H](Cc1c[nH]c2ccccc12)NC(=O)[C@@H]1CCC(=O)N1)C(=O)N[C@@H](CCCNC(=N)N)C(=O)N1CCC[C@H]1C(=O)NCC(N)=O [pGlu-deleted-Trp-Ser-Tyr-Gly-Leu-Arg-Pro-Gly-NH2] ([pGlu]WSYGLRPG-NH2)		2,000	3,000	
CC(C)C[C@H](NC(=O)[C@@H](CC(C)C)NC(=O)[C@H](Cc1ccc(O)cc1)NC(=O)[C@H](CO)NC(=O)[C@H](Cc1c[nH]c2ccccc12)NC(=O)[C@H](Cc1c[nH]cn1)NC(=O)[C@@H]1CCC(=O)N1)C(=O)N[C@@H](CCCNC(=N)N)C(=O)N1CCC[C@H]1C(=O)NCC(N)=O [D-Leu for Gly]	60%			
CCNC(=O)[C@@H]1CCCN1C(=O)[C@H](CCCNC(=N)N)NC(=O)[C@H](CC(C)C)NC(=O)[C@@H](C)NC(=O)[C@H](Cc1ccc(O)cc1)NC(=O)[C@H](CO)NC(=O)[C@H](Cc1c[nH]c2ccccc12)NC(=O)CNC(=O)[C@@H]1CCC(=O)N1 [pGlu-Gly-Trp-Ser-Tyr-D-Ala-Leu-Arg-Pro-NHCH2 CH3] ([pGlu]GWSY[dA]LRP-NHEt)		700	500	
pGlu-His-Trp-Ser-Tyr-Gly-Leu-Arg-Pro-NHCH 2 CH3				Percent LRF Potency In Vitro [5]: 1,500%; Percent LRF Potency In Vivo (rats [6]): 300%
CC(C)C[C@H](NC(=O)[C@@H](C)NC(=O)[C@H](Cc1ccc(O)cc1)NC(=O)[C@H](CO)NC(=O)[C@H](Cc1c[nH]c2ccccc12)NC(=O)[C@@H]1CCC(=O)N1)C(=O)N[C@@H](CCCNC(=N)N)C(=O)N1CCC[C@H]1C(=O)NCC(N)=O [pGlu-Trp-Ser-Tyr-D-Ala-Leu-Arg-Pro-Gly-NH2] ([pGlu]WSY[dA]LRPG-NH2)		700	500	times more potent as inhibitor for release of gonadotropins than the same peptide with Gly in the 6-position (pituitary gland [7]): 3 times
